{"source": "patent US20260042764A1", "about": "“COMPOSITIONS AND METHODS FOR INHIBITION OF KRAS” (TheRas, Inc., priority 2022, published 2026)", "note": "pIC50: −log10 of the molar value."}
{"target": "T1, Avi-KRAS WT (1-169) GppNHp/RAF1 RBD-3xFLAG (52-151) (Homo sapiens, UniProt P01116)", "T1 construct": "Avi-KRAS WT (1-169)", "T1 sequence (P01116 1-169 isoform P01116-2)": "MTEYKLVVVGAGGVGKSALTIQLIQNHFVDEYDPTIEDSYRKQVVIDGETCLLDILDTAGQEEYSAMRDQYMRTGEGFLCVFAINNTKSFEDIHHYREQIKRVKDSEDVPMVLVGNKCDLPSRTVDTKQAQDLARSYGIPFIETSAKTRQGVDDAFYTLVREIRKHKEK", "experiment": "Raf1-KRAS WT-GppNHP disruption HTRF assay (Biological Example 1)", "assay_type": "binding", "conditions": "KRAS WT, GppNHp-loaded; class symbols", "how_it_was_run": "(§1)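 Compound disruption of KRAS-GppNHp/RAF1 RBD binding read by HTRF after two sequential 1 h room-temperature incubations (protein mix, then detection reagents), shaken at 700 rpm. Buffer Tris pH 7.5 with MgCl2, BSA, Tween and 10% DMSO; results given as percent activity relative to DMSO (100%).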"}
{"compound": "CCN(c1nc(OCC23CCCN2CC(F)C3)nc2c(F)c(-c3ccc(F)c4sc(N)c(C#N)c34)c(C(F)(F)F)cc12)C1CCN(C(=O)c2cccnc2)C1", "note": "(stereo not drawn) [Compound 715]", "pIC50": "> 7.00"}
{"compound": "CCN(c1nc(OCC23CCCN2CC(F)C3)nc2c(F)c(-c3ccc(F)c4sc(N)c(C#N)c34)c(C(F)(F)F)cc12)C1CCN(C(=O)c2ccccn2)C1", "note": "(stereo not drawn) [Compound 737]", "pIC50": "> 7.00"}
{"compound": "CN(C)C(=O)c1nn2c(c1C1CC1)CN(c1nc(OCC34CCCN3CC(F)C4)nc3c(F)c(-c4ccc(F)c5sc(N)c(C#N)c45)c(C(F)(F)F)cc13)CC2", "note": "(stereo not drawn) [Compound 738]", "pIC50": "6.00 to 7.00"}
{"compound": "CCN(CC)C(=O)c1nn2c(c1C)CN(c1nc(OCC34CCCN3CC(F)C4)nc3c(F)c(-c4ccc(F)c5sc(N)c(C#N)c45)c(C(F)(F)F)cc13)CC2", "note": "(stereo not drawn) [Compound 740]", "pIC50": "6.00 to 7.00"}
{"compound": "Cc1c(C(=O)N2CCC2)nn2c1CN(c1nc(OCC34CCCN3CC(F)C4)nc3c(F)c(-c4ccc(F)c5sc(N)c(C#N)c45)c(C(F)(F)F)cc13)CC2", "note": "(stereo not drawn) [Compound 742]", "pIC50": "5.00 to 6.00"}
{"target": "T2, Avi-KRAS G12D (1-169) GppNHp/RAF1 RBD-3xFLAG (52-151) (Homo sapiens, UniProt P01116, G12D)", "T2 construct": "Avi-KRAS G12D (1-169)", "T2 sequence (P01116 1-169 isoform P01116-2 G12D)": "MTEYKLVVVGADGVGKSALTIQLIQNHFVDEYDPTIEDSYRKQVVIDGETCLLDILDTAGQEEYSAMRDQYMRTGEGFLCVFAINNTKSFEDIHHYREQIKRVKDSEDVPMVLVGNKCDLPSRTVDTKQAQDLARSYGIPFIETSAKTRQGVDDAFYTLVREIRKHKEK", "experiment": "Raf1-KRAS G12D-GppNHP disruption HTRF assay (Biological Example 1)", "assay_type": "binding", "conditions": "KRAS G12D, GppNHp-loaded; class symbols", "how_it_was_run": "as §1"}
{"compound": "CCN(c1nc(OCC23CCCN2CC(F)C3)nc2c(F)c(-c3ccc(F)c4sc(N)c(C#N)c34)c(C(F)(F)F)cc12)C1CCN(C(=O)c2cccnc2)C1", "note": "(stereo not drawn) [Compound 715]", "pIC50": "> 7.00"}
{"compound": "CCN(c1nc(OCC23CCCN2CC(F)C3)nc2c(F)c(-c3ccc(F)c4sc(N)c(C#N)c34)c(C(F)(F)F)cc12)C1CCN(C(=O)c2ccccn2)C1", "note": "(stereo not drawn) [Compound 737]", "pIC50": "> 7.00"}
{"compound": "CN(C)C(=O)c1nn2c(c1C1CC1)CN(c1nc(OCC34CCCN3CC(F)C4)nc3c(F)c(-c4ccc(F)c5sc(N)c(C#N)c45)c(C(F)(F)F)cc13)CC2", "note": "(stereo not drawn) [Compound 738]", "pIC50": "6.00 to 7.00"}
{"compound": "CCN(CC)C(=O)c1nn2c(c1C)CN(c1nc(OCC34CCCN3CC(F)C4)nc3c(F)c(-c4ccc(F)c5sc(N)c(C#N)c45)c(C(F)(F)F)cc13)CC2", "note": "(stereo not drawn) [Compound 740]", "pIC50": "6.00 to 7.00"}
{"compound": "Cc1c(C(=O)N2CCC2)nn2c1CN(c1nc(OCC34CCCN3CC(F)C4)nc3c(F)c(-c4ccc(F)c5sc(N)c(C#N)c45)c(C(F)(F)F)cc13)CC2", "note": "(stereo not drawn) [Compound 742]", "pIC50": "6.00 to 7.00"}
{"system": "SW620 cells (KRAS G12V)", "experiment": "Cell-based pERK HTRF assay in SW620 cell (Biological Example 4)", "conditions": "Homo sapiens, SW-620, SW620 (KRAS G12V) cells, pERK HTRF; class symbols", "how_it_was_run": "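SW620 seeded in RPMI/10% FBS, next day dosed 4 h (top 1 μM, half-log, 9 pts, 0.25% DMSO). Lysed, pERK by d2/Eu cryptate HTRF, 4–24 h RT, 615 nm read.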"}
{"compound": "CCN(c1nc(OCC23CCCN2CC(F)C3)nc2c(F)c(-c3ccc(F)c4sc(N)c(C#N)c34)c(C(F)(F)F)cc12)C1CCN(C(=O)c2cccnc2)C1", "note": "(stereo not drawn) [Compound 715]", "pIC50": "> 7.00"}
{"compound": "CCN(c1nc(OCC23CCCN2CC(F)C3)nc2c(F)c(-c3ccc(F)c4sc(N)c(C#N)c34)c(C(F)(F)F)cc12)C1CCN(C(=O)c2ccccn2)C1", "note": "(stereo not drawn) [Compound 737]", "pIC50": "> 7.00"}
{"compound": "CN(C)C(=O)c1nn2c(c1C1CC1)CN(c1nc(OCC34CCCN3CC(F)C4)nc3c(F)c(-c4ccc(F)c5sc(N)c(C#N)c45)c(C(F)(F)F)cc13)CC2", "note": "(stereo not drawn) [Compound 738]", "pIC50": "> 7.00"}
{"compound": "CCN(CC)C(=O)c1nn2c(c1C)CN(c1nc(OCC34CCCN3CC(F)C4)nc3c(F)c(-c4ccc(F)c5sc(N)c(C#N)c45)c(C(F)(F)F)cc13)CC2", "note": "(stereo not drawn) [Compound 740]", "pIC50": "> 7.00"}
{"compound": "Cc1c(C(=O)N2CCC2)nn2c1CN(c1nc(OCC34CCCN3CC(F)C4)nc3c(F)c(-c4ccc(F)c5sc(N)c(C#N)c45)c(C(F)(F)F)cc13)CC2", "note": "(stereo not drawn) [Compound 742]", "pIC50": "> 7.00"}
{"target": "T3, Avi-KRAS G12V (1-169) GppNHp/RAF1 RBD-3xFLAG (52-151) (Homo sapiens, UniProt P01116, G12V)", "T3 construct": "Avi-KRAS G12V (1-169)", "T3 sequence (P01116 1-169 isoform P01116-2 G12V)": "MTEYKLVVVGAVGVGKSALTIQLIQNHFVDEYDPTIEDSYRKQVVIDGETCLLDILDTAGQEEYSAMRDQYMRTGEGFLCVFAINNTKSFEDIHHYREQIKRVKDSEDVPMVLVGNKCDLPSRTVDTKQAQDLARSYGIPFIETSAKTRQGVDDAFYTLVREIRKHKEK", "experiment": "Raf1-KRAS G12V-GppNHP disruption HTRF assay (Biological Example 1)", "assay_type": "binding", "conditions": "KRAS G12V, GppNHp-loaded; class symbols", "how_it_was_run": "as §1"}
{"compound": "CCN(c1nc(OCC23CCCN2CC(F)C3)nc2c(F)c(-c3ccc(F)c4sc(N)c(C#N)c34)c(C(F)(F)F)cc12)C1CCN(C(=O)c2cccnc2)C1", "note": "(stereo not drawn) [Compound 715]", "pIC50": "> 7.00"}
{"compound": "CCN(c1nc(OCC23CCCN2CC(F)C3)nc2c(F)c(-c3ccc(F)c4sc(N)c(C#N)c34)c(C(F)(F)F)cc12)C1CCN(C(=O)c2ccccn2)C1", "note": "(stereo not drawn) [Compound 737]", "pIC50": "> 7.00"}
{"compound": "CN(C)C(=O)c1nn2c(c1C1CC1)CN(c1nc(OCC34CCCN3CC(F)C4)nc3c(F)c(-c4ccc(F)c5sc(N)c(C#N)c45)c(C(F)(F)F)cc13)CC2", "note": "(stereo not drawn) [Compound 738]", "pIC50": "6.00 to 7.00"}
{"compound": "CCN(CC)C(=O)c1nn2c(c1C)CN(c1nc(OCC34CCCN3CC(F)C4)nc3c(F)c(-c4ccc(F)c5sc(N)c(C#N)c45)c(C(F)(F)F)cc13)CC2", "note": "(stereo not drawn) [Compound 740]", "pIC50": "6.00 to 7.00"}
{"compound": "Cc1c(C(=O)N2CCC2)nn2c1CN(c1nc(OCC34CCCN3CC(F)C4)nc3c(F)c(-c4ccc(F)c5sc(N)c(C#N)c45)c(C(F)(F)F)cc13)CC2", "note": "(stereo not drawn) [Compound 742]", "pIC50": "6.00 to 7.00"}
{"system": "GP2d cells (KRAS G12D)", "experiment": "Cell-based pERK HTRF assay in GP2d cell (Biological Example 2)", "conditions": "GP2d, GP2d (KRAS G12D) cells, pERK HTRF; class symbols", "how_it_was_run": "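60 min compound, 0.25% DMSO, 9-pt half-log curve from 1 μM or 100 nM; DMEM/10% FBS.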"}
{"compound": "CCN(c1nc(OCC23CCCN2CC(F)C3)nc2c(F)c(-c3ccc(F)c4sc(N)c(C#N)c34)c(C(F)(F)F)cc12)C1CCN(C(=O)c2cccnc2)C1", "note": "(stereo not drawn) [Compound 715]", "pIC50": "> 7.00"}
{"compound": "CCN(c1nc(OCC23CCCN2CC(F)C3)nc2c(F)c(-c3ccc(F)c4sc(N)c(C#N)c34)c(C(F)(F)F)cc12)C1CCN(C(=O)c2ccccn2)C1", "note": "(stereo not drawn) [Compound 737]", "pIC50": "> 7.00"}
{"compound": "CN(C)C(=O)c1nn2c(c1C1CC1)CN(c1nc(OCC34CCCN3CC(F)C4)nc3c(F)c(-c4ccc(F)c5sc(N)c(C#N)c45)c(C(F)(F)F)cc13)CC2", "note": "(stereo not drawn) [Compound 738]", "pIC50": "> 7.00"}
{"compound": "CCN(CC)C(=O)c1nn2c(c1C)CN(c1nc(OCC34CCCN3CC(F)C4)nc3c(F)c(-c4ccc(F)c5sc(N)c(C#N)c45)c(C(F)(F)F)cc13)CC2", "note": "(stereo not drawn) [Compound 740]", "pIC50": "> 7.00"}
{"compound": "Cc1c(C(=O)N2CCC2)nn2c1CN(c1nc(OCC34CCCN3CC(F)C4)nc3c(F)c(-c4ccc(F)c5sc(N)c(C#N)c45)c(C(F)(F)F)cc13)CC2", "note": "(stereo not drawn) [Compound 742]", "pIC50": "> 7.00"}
{"target": "T4, Avi-KRAS G12R (1-169) GppNHp/RAF1 RBD-3xFLAG (52-151) (Homo sapiens, UniProt P01116, G12R)", "T4 construct": "Avi-KRAS G12R (1-169)", "T4 sequence (P01116 1-169 isoform P01116-2 G12R)": "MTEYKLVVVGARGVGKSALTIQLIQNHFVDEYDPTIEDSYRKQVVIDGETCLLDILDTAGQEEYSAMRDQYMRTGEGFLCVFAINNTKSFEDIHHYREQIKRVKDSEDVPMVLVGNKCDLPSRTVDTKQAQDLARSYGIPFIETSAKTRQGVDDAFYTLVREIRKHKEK", "experiment": "Raf1-KRAS G12R-GppNHP disruption HTRF assay (Biological Example 1)", "assay_type": "binding", "conditions": "KRAS G12R, GppNHp-loaded; class symbols", "how_it_was_run": "as §1"}
{"compound": "CCN(c1nc(OCC23CCCN2CC(F)C3)nc2c(F)c(-c3ccc(F)c4sc(N)c(C#N)c34)c(C(F)(F)F)cc12)C1CCN(C(=O)c2cccnc2)C1", "note": "(stereo not drawn) [Compound 715]", "pIC50": "> 7.00"}
{"compound": "CCN(c1nc(OCC23CCCN2CC(F)C3)nc2c(F)c(-c3ccc(F)c4sc(N)c(C#N)c34)c(C(F)(F)F)cc12)C1CCN(C(=O)c2ccccn2)C1", "note": "(stereo not drawn) [Compound 737]", "pIC50": "> 7.00"}
{"compound": "CN(C)C(=O)c1nn2c(c1C1CC1)CN(c1nc(OCC34CCCN3CC(F)C4)nc3c(F)c(-c4ccc(F)c5sc(N)c(C#N)c45)c(C(F)(F)F)cc13)CC2", "note": "(stereo not drawn) [Compound 738]", "pIC50": "6.00 to 7.00"}
{"compound": "CCN(CC)C(=O)c1nn2c(c1C)CN(c1nc(OCC34CCCN3CC(F)C4)nc3c(F)c(-c4ccc(F)c5sc(N)c(C#N)c45)c(C(F)(F)F)cc13)CC2", "note": "(stereo not drawn) [Compound 740]", "pIC50": "6.00 to 7.00"}
{"compound": "Cc1c(C(=O)N2CCC2)nn2c1CN(c1nc(OCC34CCCN3CC(F)C4)nc3c(F)c(-c4ccc(F)c5sc(N)c(C#N)c45)c(C(F)(F)F)cc13)CC2", "note": "(stereo not drawn) [Compound 742]", "pIC50": "6.00 to 7.00"}
